Like-named read-outs stand apart in the source and are kept apart here. Positions of bridges follow the written chain, without caps; N, C: chain ends. Residues, ends and D or L forms follow the SMILES beside them. No end group written: not given here.
How the values were obtained:
Type in all cases: cell-based
[1] = system: mouse neuroblastoma cell line (N1E-115); settings: for A450(-A620) After 6 hers: WST-8 absorbance after 6 hours; for A450(-A620) After 24 hers: WST-8 absorbance after 24 hours
Description: Some of the sample peptides obtained in Example 1 were tested for antitumor activity against target cultured tumor cells. Details of the assay are as described below.
(§1) As the tumor cells tested, a commercial mouse neuroblastoma cell line (N1E-115) was used. The cell line was cultured beforehand in a DMEM medium (i.e. Dulbecco MEM medium (DMEM medium, a Gibco product) containing 10% fetal bovine serum (FBS, a Gibco product), 2 mM of L-glutamine, 50 unit/mL of penicillin, and 50 μg/mL of streptomycin), and the number of cells per well in a 96-well plate was adjusted to approximately 5×10^3. The volume of the medium for this was 100 μL per well.
(§2) Subsequently, the stock solution of each sample peptide shown in Table 3 was added to each well to a peptide concentration in the well of 50 μM or 100 μM.
(§3) After the sample peptides were added as described above, the 96-well plate was placed in a CO2 incubator and cultured without agitation at 37° C. under 5% CO2. At the time of the peptide addition (at the start of treatment) and at 6 hours or 24 hours from the peptide addition and the start of incubation, the viability status of the cultured cells tested was analyzed with a commercial colorimetric assay kit. In particular, to each cell-culturing well, “water-soluble tetrazolium salt (WST-8)” was added as a colorimetric reagent; after two hours of incubation following the addition, the cell culture medium supplied with the colorimetric reagent was collected; and the level of inhibition of cell proliferation was evaluated by colorimetry, measuring the absorbance at a wavelength of 450 nm (values corrected with the absorbance at a wavelength of 620 nm, A450-A620) based on reduction of tetrazolium salt. Based on the absorbance at the time of the sample peptide addition (at the start of treatment), the percent decrease in the absorbance after 6 hours or 24 hours was determined as the cell proliferation inhibition rate (%).

HeLa cells (HeLa S3) = settings: WST-8 absorbance after 24 hours
Description: as §1, §2, §3
HeLa cells (HeLa S3) were substituted for the tumor cells tested and the same test as Example 2 described above was carried out. In the present example, the peptides of Samples 1 to 7, 9, 10, 13, 16, 21 and 35 were used.

HeLa cells = assay: Multipolar spindle formation, DAPI and anti-tubulin immunofluorescence microscopy; settings: after 24 hours
Description: In addition, the cultured cells supplemented with the peptides were observed under fluorescence microscope. Herein, as for some examples, the observations on Samples 1, 9, 13, 16, 21 and 35 are outlined. In particular, each peptide was added to a peptide concentration in a well of 50 μM (Samples 1, 9) or 100 μM (Samples 13, 16, 21, 35). After 24 hours, the cultured cells were subjected to nuclear staining with DAPI (4′,6-diamidino-2-phenylindole) and observed under fluorescence microscope. As a marker for spindles, α-tubulin was used; and the cells were tested for the presence of tubulin (i.e. the presence of spindles) by immunofluorescence, using a fluorescence-labeled anti-tubulin antibody to identify the tubulin. FIGS. 1 to 6 show merged images of DAPI-stained images and fluorescence images showing the results of the immunofluorescence assays using the fluorescence-labeled anti-tubulin antibody.

[2] = system: human alveolar basal epithelial adenocarcinoma cells, A549; settings: for antitumor activity (tumor cell proliferation-inhibiting activity), in words: A549, 50 μM, 24 hours, summary of Table 5; for A450(-A620) After 24 hers: A549, peptide 50 μM, WST-8 absorbance after 24 hours
Description: as §1, §2, §3
Cells forming a […] (human alveolar basal epithelial adenocarcinoma cells, A549) were substituted for the tumor cells tested and the same test as Example 2 described above was carried out. In the present example, the peptides of Samples 1 to 13, 15 to 22, 24, 29, 35 and 40 were used.

Molecule	antitumor activity (tumor cell proliferation-inhibiting activity), in words ([1]; N1E-115, 50 or 100 μM, summary of Table 3)	A450(-A620) After 6 hers ([1]; N1E-115, peptide 50 μM)	A450(-A620) After 24 hers ([1]; N1E-115, peptide 50 μM)	A450(-A620) After 6 hers ([1]; N1E-115, peptide 100 μM)	A450(-A620) After 24 hers ([1]; N1E-115, peptide 100 μM)	A450(-A620) After 24 hers (HeLa cells (HeLa S3); HeLa S3, peptide 50 μM)	A450(-A620) After 24 hers (HeLa cells (HeLa S3); HeLa S3, peptide 100 μM)	formation of multipolar spindles (presence of many multipolar cells) (HeLa cells; peptide 50 μM)	antitumor activity (tumor cell proliferation-inhibiting activity), in words [2]	A450(-A620) After 24 hers [2]	formation of multipolar spindles (presence of many multipolar cells) (HeLa cells; peptide 100 μM)
C[C@@H]1NC(=O)[C@H](CO)NC(=O)[C@H](CO)NC(=O)[C@@H](N)CSSC[C@@H](C(=O)O)NC(=O)[C@H](CO)NC(=O)[C@H](CCCCN)NC(=O)CNC(=O)[C@H]([C@@H](C)O)NC1=O [Sample 1, CSSATGKSC] (H-CSSATGKSC-OH; disulfide 1-9; N-terminus and C-terminus assumed)	high antitumor activity	0.1361	0.1578	0.1104	0.1119	0.1028	0.0891	formation of multipolar spindles	high antitumor activity	1.5487	–
CC(C)C[C@@H]1NC(=O)[C@@H](N)CSSC[C@@H](C(=O)O)NC(=O)[C@H](CCCCN)NC(=O)[C@H](CO)NC(=O)[C@@H]2CCCN2C(=O)[C@H](CO)NC(=O)[C@@H]2CCCN2C(=O)[C@H](C)NC1=O [Sample 2, CLAPSPSKC] (H-CLAPSPSKC-OH; disulfide 1-9; N-terminus and C-terminus assumed)	–	0.2235	0.3926	0.2094	0.3764	0.0924	0.0739	–	–	1.8971	–
N=C(N)NCCC[C@@H]1NC(=O)[C@H](Cc2c[nH]cn2)NC(=O)CNC(=O)[C@@H](N)CSSC[C@@H](C(=O)O)NC(=O)[C@H](Cc2ccc(O)cc2)NC(=O)[C@H](CCC(N)=O)NC(=O)[C@H](Cc2ccc(O)cc2)NC(=O)[C@@H]2CCCN2C1=O [Sample 4, CGHRPYQYC] (H-CGHRPYQYC-OH; disulfide 1-9; N-terminus and C-terminus assumed)	–	–	–	–	–	0.0955	0.0937	–	–	1.7663	–
CC(C)C[C@@H]1NC(=O)[C@@H]2CCCN2C(=O)[C@H](Cc2ccccc2)NC(=O)[C@H](C)NC(=O)[C@H](Cc2c[nH]c3ccccc23)NC(=O)[C@@H](N)CSSC[C@@H](C(=O)O)NC(=O)[C@H](Cc2c[nH]cn2)NC(=O)[C@H](Cc2c[nH]cn2)NC1=O [Sample 5, CWAFPLHHC] (H-CWAFPLHHC-OH; disulfide 1-9; N-terminus and C-terminus assumed)	–	–	–	–	–	0.0955	0.0952	–	–	1.8994	–
CC(C)C[C@@H]1NC(=O)[C@H]([C@@H](C)O)NC(=O)[C@@H](N)CSSC[C@@H](C(=O)O)NC(=O)[C@H](CC(N)=O)NC(=O)[C@H](CO)NC(=O)[C@H](Cc2c[nH]cn2)NC(=O)[C@H](CO)NC(=O)[C@H](CC(N)=O)NC1=O [Sample 6, CTLNSHSNC] (H-CTLNSHSNC-OH; disulfide 1-9; N-terminus and C-terminus assumed)	–	0.1633	0.3083	0.1345	0.2830	0.1174	0.0906	–	high antitumor activity	1.4667	–
CC[C@H](C)[C@@H]1NC(=O)[C@H](CCC(=O)O)NC(=O)[C@@H](N)CSSC[C@@H](C(=O)O)NC(=O)[C@H]([C@@H](C)O)NC(=O)[C@H](CCCNC(=N)N)NC(=O)[C@H](CCCCN)NC(=O)[C@H](C)NC(=O)[C@H](CO)NC1=O [Sample 7, CEISAKRTC] (H-CEISAKRTC-OH; disulfide 1-9; N-terminus and C-terminus assumed)	–	–	–	–	–	0.1508	0.1081	–	–	1.6822	–
CC(C)C[C@@H]1NC(=O)[C@H](CO)NC(=O)[C@@H]2CCCN2C(=O)[C@@H]2CCCN2C(=O)[C@H](CCCNC(=N)N)NC(=O)[C@@H]2CCCN2C(=O)[C@@H](N)CSSC[C@@H](C(=O)O)NC(=O)[C@H](CCC(=O)O)NC1=O [Sample 9, CPRPPSLEC] (H-CPRPPSLEC-OH; disulfide 1-9; N-terminus and C-terminus assumed)	–	–	–	–	–	0.1366	0.0892	formation of multipolar spindles	–	1.8645	–
C[C@@H]1NC(=O)[C@H](Cc2c[nH]c3ccccc23)NC(=O)[C@H](Cc2c[nH]cn2)NC(=O)CNC(=O)[C@H]([C@@H](C)O)NC(=O)[C@@H](N)CSSC[C@@H](C(=O)O)NC(=O)[C@H](CCC(=O)O)NC(=O)[C@H](CO)NC1=O [Sample 10, CTGHWASEC] (H-CTGHWASEC-OH; disulfide 1-9; N-terminus and C-terminus assumed)	–	–	–	–	–	0.0909	0.0915	–	–	1.7472	–
GPHHYWYHLRLP [Sample 16, GPHHYWYHLRLP]	–	–	0.6912	–	0.6048	–	–	–	–	1.7309	formation of multipolar spindles
GPHLGMNQRRRP [Sample 21, GPHLGMNQRRRP]	–	–	0.5284	–	0.5810	–	–	–	high antitumor activity	1.5672	formation of multipolar spindles
SVSVGMKPSPRP [Sample 13, SVSVGMKPSPRP]	–	–	0.5681	–	0.6422	–	–	–	–	1.9412	formation of multipolar spindles
SVSVGMKPSPRPKKRTLRKNDRKKR [Sample 35]	–	–	–	–	–	–	–	–	high antitumor activity	1.7451	formation of multipolar spindles

From patent US9296787B2, “Antitumor peptide and use thereof” (priority 2011, dated 2016)
